Source: patent US6616940B2, “Process for decreasing adiposity using Vitamin A as a dietary supplement” (The Procter & Gamble Company, priority 1998, dated 2003)

Experiments:
[1] = tested on: leptin mRNA; test: Leptin mRNA levels in PWAT (dot-blot); format: in vivo, rats; details: CGP-12177 0.75 mg/kg i.p.
Experimental: (§1) Rats were fed a diet containing either, 8,643 IU retinol/kg diet (normal diet) or 430,431 IU retinol/kg diet (vitamin A supplemented diet) for a period of 8 weeks. Food and water were provided ad libitum. Body weights and food intake were recorded weekly. Basal whole body oxygen consumption was measured before starting the diet and then after week 3, 6 and 8 on the diet. At the end of 8 weeks, half the rats from each group were challenged with a single dose of the β3 adrenergic specific agonist, CGP-12177 (prepared in pyrogen-free saline, available from Ciba-Geigy, Summit, […].) or saline. The stimulated whole body oxygen consumption was measured and the animals sacrificed 4 hours after injection. Total cellular RNA was extracted using a modification of the method described in Chomczynski and Sacchi, “Single step method of RNA isolation by acid guanidinium thiocyanate-phenolchloroform extraction”, Analytical Biochemistry 162:156-159 (1987). […] The RNA was quantified by spectrophotometric absorption at 260 nm using multiple dilutions of each sample. […] The latent image was scanned using a Phosphor Imager (Molecular Dynamic, Sunnyvale, Calif.) and analyzed by Image Quant Software (Molecular Dynamics). Intensities per μg total cellular RNA were calculated by comparison to internal laboratory standards of WAT or BAT total RNA present on each nylon membrane.

[2] = Whole body oxygen consumption (basal and CGP-12177-stimulated); format: in vivo; details: rats on normal and vitamin A supplemented diets, 0.75 mg/kg i.p., vs saline injected rats
Experimental: (§2) Rats were fed a diet containing either, 8,643 IU retinol/kg diet (normal diet) or 430,431 IU retinol/kg diet (vitamin A supplemented diet) for a period of 8 weeks. Food and water were provided ad libitum. Body weights and food intake were recorded weekly. Basal whole body oxygen consumption was measured before starting the diet and then after week 3, 6 and 8 on the diet. At the end of 8 weeks, half the rats from each group were challenged with a single dose of the β3 adrenergic specific agonist, CGP-12177 (prepared in pyrogen-free saline, available from Ciba-Geigy, Summit, N.J.) (0.75 mg/kg, i.p.) or saline. The stimulated whole body oxygen consumption was measured and the animals sacrificed 4 hours after injection.
O2 consumption was assessed on up to four rats simultaneously with an Oxyscan analyzer (OXS-4; Amniotic Electronics, Columbus, Ohio). All experiments were performed on conscious unanesthetized rats during the light phase of the light-dark cycle. Flow rates were 2 L/min with a 30 second sampling time at 5 minute intervals. The temperature was maintained at 26° C. Results were expressed on a mass-dependent basis (ml/min/kg^0.67). The cumulative increase in the CGP12177-stimulated oxygen consumption was calculated as the average increase over baseline from 30 min to 110 min, post injection.

[3] = tested on: UCP1 mRNA; test: UCP1 mRNA levels in BAT (dot-blot); format: in vivo; details: rats on both vitamin A supplemented and normal diets, 0.75 mg/kg i.p., 4 h (FIG. 4)
Experimental: as §1

[4] = tested on: UCP2 mRNA; test: UCP2 mRNA levels in PWAT and BAT; format: in vivo, rats; details: CGP-12177 0.75 mg/kg i.p., 4 h, mean ± SE
Experimental: as §2
(§3) Total cellular RNA was extracted using a modification of the method described in Chomczynski and Sacchi, “Single step method of RNA isolation by acid guanidinium thiocyanate-phenolchloroform extraction”, Analytical Biochemistry 162:156-159 (1987). The integrity of the isolated RNA was verified using 1% agarose gels stained with ethidium bromide. The RNA was quantified by spectrophotometric absorption at 260 nm using multiple dilutions of each sample.
(§4) For dot-blot analysis, multiple concentrations of RNA were immobilized on nylon membranes using a dot-blot apparatus (Biorad, Richmond, Calif.). The membranes were baked at 80° C. for 2 hrs. The baked membranes were prehybridized using 25 mM potassium phosphate, 750 mM NaCl, 75 mM Na citrate, 5× Denhardt's solution, 50 μg/ml denatured salmon sperm DNA, and 50% formamide. After incubation for 14-16 hrs. at 42° C, the membranes were hybridized with ^32P labeled probes in the prehybridization buffer plus 10% dextran sulfate. After hybridization for 14-16 hr at 42° C., the membranes were washed and exposed to a phosphor imaging screen for 48 hrs. The latent image was scanned using a Phosphor Imager (Molecular Dynamic, Sunnyvale, Calif.) and analyzed by Image Quant Software (Molecular Dynamics). Intensities per μg total cellular RNA were calculated by comparison to internal laboratory standards of WAT or BAT total RNA present on each nylon membrane.

[5] = tested on: β3-adrenergic receptor mRNA; test: β3-adrenergic receptor mRNA levels in PWAT and BAT; format: in vivo, rats; details: for β3AR mRNA levels, BAT / β3AR mRNA levels, PWAT: CGP-12177 0.75 mg/kg i.p., 4 h, mean ± SE
Experimental: as §2, §3, §4

[6] = tested on: β-actin mRNA; test: β-actin mRNA levels in BAT; format: in vivo, rats; details: CGP-12177 0.75 mg/kg i.p., 4 h, mean ± SE
Experimental: as §1

Q: What does the source list for `CC(C)(C)NCC(O)COc1cccc2[nH]c(=O)[nH]c12` (stereo not shown) [CGP-12177]?
A: Suppression of leptin mRNA levels in PWAT ([1]; rats on normal diet, 4 hr (FIG. 2)): 27%; Effect on leptin mRNA levels in PWAT ([1]; rats on vitamin A supplemented diet, 4 hr, vs saline on same diet): no further effect; Oxygen consumption upon administration of CGP-12177 [2]: rapid and sustained increase; UCP1 mRNA levels in BAT upon administration of CGP-12177 [3]: significant but similar increase; UCP2 mRNA levels, BAT ([4]; Normal Diet): 93.4 ± 12.2 arbitrary units; UCP2 mRNA levels, PWAT ([4]; Normal Diet, 0.75 mg/kg): 109 ± 10 arbitrary units; UCP2 mRNA levels, PWAT ([4]; Normal Diet, listed as CGP12177, 0.75 mg/kg): no effect; UCP2 mRNA levels, BAT ([4]; Vitamin A supplemented diet): 94 ± 8.9 arbitrary units; UCP2 mRNA levels, PWAT ([4]; Vitamin A supplemented diet): 110 ± 10 arbitrary units; Down regulation of β3-adrenergic receptor mRNA levels in BAT ([5]; CGP-12177 for 4 h, rats on vitamin A supplemented and normal diets, vs saline treated): 50%; β3AR mRNA levels, BAT ([5]; Normal Diet): 50.9 ± 3.3 arbitrary units; β3AR mRNA levels, PWAT ([5]; Normal Diet): 105 ± 6.0 arbitrary units; β3AR mRNA levels, BAT ([5]; Vitamin A supplemented diet): 59.8 ± 7.9 arbitrary units; β3AR mRNA levels, PWAT ([5]; Vitamin A supplemented diet): 112 ± 11 arbitrary units; β-actin mRNA levels, BAT ([6]; Normal Diet): 98.6 ± 7.4 arbitrary units; β-actin mRNA levels, BAT ([6]; Vitamin A supplemented diet): 93.8 ± 8.0 arbitrary units
